Key:
[1] = Pharmacokinetic test of DFNa-containing microcapsules (Test 6); assay type: in vivo; settings: rabbit knee joint, 1 mg in terms of DFNa, solution in physiological saline (FIG. 9)
Description: The DFNa-containing microcapsules (average particle size: 67.9 μm) obtained in Example 25 were suspended in the same injection-grade dispersion medium as that employed in Test 1. The resulting suspension was injected in a dose of 10 mg in terms of DFNa into a knee joint of a rabbit, and the amount of DF in the synovium and its peripheral tissue was measured periodically. As a control, a solution of DFNa in a physiological saline was injected in a dose of 1 mg in terms of DFNa, and measurements were conducted.

[2] = Pharmacokinetic test of MTX-containing microcapsules (Test 8); assay type: in vivo; settings: rabbit knee joint, 1 mg in terms of MTX (FIG. 11)
Description: The MTX-containing microcapsules obtained in Example 26 were suspended in the same injection-grade dispersion medium as that employed in Test 1. The resulting suspension was injected in a dose of 1 mg in terms of MTX into a knee joint of a rabbit, and the amount of MTX in the synovium and its peripheral tissue was measured periodically. As a control, MTX was dissolved in a phosphate buffer of pH 7.5 and the resulting solution was injected in a dose of 1 mg in terms of MTX.

| Compound | amount of DF in the synovium and its peripheral tissue [1] | amount of MTX in the synovium and its peripheral tissue [2] |
| --- | --- | --- |
| O=C(O)Cc1ccccc1Nc1c(Cl)cccc1Cl [diclofenac sodium] | no existence of DF was observed |  |
| CN(Cc1cnc2nc(N)nc(N)c2n1)c1ccc(C(=O)N[C@@H](CCC(=O)O)C(=O)O)cc1 [solution of MTX in the phosphate buffer, Methotrexate] |  | no existence of MTX was observed |

Source: patent US6428804B1, “Intra-articular preparation for the treatment of arthropathy” (SSP Co., Ltd., priority 1997, dated 2002)
